{"source": "ChEMBL document CHEMBL4680144", "about": "“N-thiadiazole-4-hydroxy-2-quinolone-3-carboxamides bearing heteroaromatic rings as novel antibacterial agents: Design, synthesis, biological evaluation and target identification” (Eur J Med Chem, 2020)", "key": {"HepG2": {"test_system": "HepG2", "experiment": "Cytotoxicity against human HepG2 cells assessed as reduction in cell viability after 72 hrs by sulforhodamine B assay", "type": "cell-based", "settings": "HepG2, 72 h"}, "Enterococcus faecalis [1]": {"test_system": "Enterococcus faecalis", "experiment": "Antibacterial activity against Enterococcus faecalis clinical isolate 15-2 assessed as inhibition of bacterial growth incubated for 18 to 24 hrs by broth microdilution method", "type": "functional", "settings": "time 18-24 hrs"}, "[2]": {"experiment": "Metabolic stability in mouse liver microsomes assessed as half life preincubated for 5 mins followed by NADPH addition and measured up to 60 mins by LC-MS/MS analysis", "type": "ADME, Microsome", "settings": "time 65 min"}, "Enterococcus faecium [3]": {"test_system": "Enterococcus faecium", "experiment": "Antibacterial activity against Enterococcus faecium clinical isolate 15-1 assessed as inhibition of bacterial growth incubated for 18 to 24 hrs by broth microdilution method", "type": "functional", "settings": "time 18-24 hrs"}, "[4]": {"experiment": "Protein binding in mouse plasma at 5 uM incubated for 5 hrs by equilibrium dialysis based LC-MS/MS analysis", "type": "ADME, cell-free", "settings": "read-out: PPB"}, "Staphylococcus aureus [5]": {"test_system": "Staphylococcus aureus", "experiment": "In vivo antibacterial activity against methicillin resistant Staphylococcus aureus clinical isolate 15-1 infected in kunming mouse assessed as animal survival rate at 0.33 mg/kg, po administered 6 hrs prior to bacterial infection and at 0 and 6 hrs post infection and measured for 7 days (reference value: 12.5 %)", "type": "functional", "settings": "15-1, po, 168 h, time 7 day"}, "[6]": {"experiment": "Metabolic stability in mouse plasma assessed as half life measured upto 120 mins by LC-MS/MS analysis", "type": "ADME, cell-free"}, "[7]": {"experiment": "AUClast in Kunming mouse at 10 mg/kg, po measured upto 72 hrs by HPLC analysis", "type": "ADME, organism-based", "design": "route oral, dose 10 mg/kg, time <=72", "settings": "in vivo"}, "Staphylococcus aureus [8]": {"test_system": "Staphylococcus aureus", "experiment": "Antibacterial activity against methicillin-resistant Staphylococcus aureus clinical isolate 15-1 assessed as inhibition of bacterial growth incubated for 18 to 24 hrs by broth microdilution method", "type": "functional", "settings": "time 18-24 hrs"}, "Staphylococcus aureus [9]": {"test_system": "Staphylococcus aureus", "experiment": "Potency index, ratio of vancomycin MIC to test compound MIC for antibacterial activity against methicillin-resistant Staphylococcus aureus clinical isolate 15-2 assessed as inhibition of bacterial growth incubated for 18 to 24 hrs by broth microdilution method", "type": "functional", "settings": "time 18-24 hrs"}, "[10]": {"experiment": "Selectivity index, ratio of IC50 for human HepG2 cells to MIC for methicillin-resistant Staphylococcus aureus", "type": "toxicity"}, "Enterococcus faecium [11]": {"test_system": "Enterococcus faecium", "experiment": "Potency index, ratio of vancomycin MIC to test compound MIC for antibacterial activity against Enterococcus faecium clinical isolate 15-2 assessed as inhibition of bacterial growth incubated for 18 to 24 hrs by broth microdilution method", "type": "functional", "settings": "time 18-24 hrs"}, "Staphylococcus aureus [12]": {"test_system": "Staphylococcus aureus", "experiment": "Potency index, ratio of vancomycin MIC to test compound MIC for antibacterial activity against methicillin-resistant Staphylococcus aureus clinical isolate 15-3 assessed as inhibition of bacterial growth incubated for 18 to 24 hrs by broth microdilution method", "type": "functional", "settings": "time 18-24 hrs"}, "Enterococcus faecalis [13]": {"test_system": "Enterococcus faecalis", "experiment": "Antibacterial activity against vancomycin-resistant Enterococcus faecalis ATCC 51299 assessed as inhibition of bacterial growth incubated for 18 to 24 hrs by broth microdilution method", "type": "functional", "settings": "time 18-24 hrs"}, "Staphylococcus aureus [14]": {"test_system": "Staphylococcus aureus", "experiment": "Antibacterial activity against methicillin-resistant Staphylococcus aureus clinical isolate 15-1 assessed as reduction in bacterial growth treated for 20 passages", "type": "functional", "settings": "time 24 hrs"}, "Staphylococcus aureus [15]": {"test_system": "Staphylococcus aureus", "experiment": "In vivo antibacterial activity against methicillin resistant Staphylococcus aureus clinical isolate 15-1 infected in kunming mouse assessed as animal survival rate at 3 mg/kg, po administered 6 hrs prior to bacterial infection and at 0 and 6 hrs post infection and measured for 7 days (reference value: 12.5 %)", "type": "functional", "settings": "15-1, po, 168 h, time 7 day"}, "Staphylococcus aureus [16]": {"test_system": "Staphylococcus aureus", "experiment": "In vivo antibacterial activity against methicillin resistant Staphylococcus aureus clinical isolate 15-1 infected in kunming mouse assessed as animal survival rate at 1 mg/kg, po administered 6 hrs prior to bacterial infection and at 0 and 6 hrs post infection and measured for 7 days (reference value: 12.5 %)", "type": "functional", "settings": "15-1, po, 168 h, time 7 day"}, "[17]": {"test_system": "Staphylococcus epidermidis", "experiment": "Potency index, ratio of vancomycin MIC to test compound MIC for antibacterial activity against methicillin-sensitive Staphylococcus epidermidis clinical isolate 15-3 assessed as inhibition of bacterial growth incubated for 18 to 24 hrs by broth microdilution method", "type": "functional", "settings": "time 18-24 hrs"}, "Staphylococcus aureus [18]": {"test_system": "Staphylococcus aureus", "experiment": "Potency index, ratio of vancomycin MIC to test compound MIC for antibacterial activity against methicillin-resistant Staphylococcus aureus clinical isolate 15-1 assessed as inhibition of bacterial growth incubated for 18 to 24 hrs by broth microdilution method", "type": "functional", "settings": "time 18-24 hrs"}, "Staphylococcus aureus [19]": {"test_system": "Staphylococcus aureus", "experiment": "Potency index, ratio of vancomycin MIC to test compound MIC for antibacterial activity against methicillin resistant and vancomycin-intermediate sensitive Staphylococcus aureus ATCC 700699 assessed as inhibition of bacterial growth incubated for 18 to 24 hrs by broth microdilution method", "type": "functional", "settings": "time 18-24 hrs"}, "Enterococcus faecalis [20]": {"test_system": "Enterococcus faecalis", "experiment": "Antibacterial activity against Enterococcus faecalis clinical isolate 15-1 assessed as inhibition of bacterial growth incubated for 18 to 24 hrs by broth microdilution method", "type": "functional", "settings": "time 18-24 hrs"}, "[21]": {"experiment": "Tmax in Kunming mouse at 10 mg/kg, po measured upto 72 hrs by HPLC analysis", "type": "ADME, organism-based", "settings": "in vivo"}, "Staphylococcus aureus [22]": {"test_system": "Staphylococcus aureus", "experiment": "Potency index, ratio of vancomycin MIC to test compound MIC for antibacterial activity against methicillin-resistant Staphylococcus aureus clinical isolate 15-9 assessed as inhibition of bacterial growth incubated for 18 to 24 hrs by broth microdilution method", "type": "functional", "settings": "time 18-24 hrs"}, "HUVEC": {"test_system": "HUVEC", "experiment": "Cytotoxicity against HUVEC assessed as reduction in cell viability after 72 hrs by sulforhodamine B assay", "type": "cell-based", "settings": "Homo sapiens"}, "[23]": {"biological_target": "DNA topoisomerase 4 subunit B (Staphylococcus aureus, UniProt P0C1S7)", "sequence (P0C1S7 whole entry)": "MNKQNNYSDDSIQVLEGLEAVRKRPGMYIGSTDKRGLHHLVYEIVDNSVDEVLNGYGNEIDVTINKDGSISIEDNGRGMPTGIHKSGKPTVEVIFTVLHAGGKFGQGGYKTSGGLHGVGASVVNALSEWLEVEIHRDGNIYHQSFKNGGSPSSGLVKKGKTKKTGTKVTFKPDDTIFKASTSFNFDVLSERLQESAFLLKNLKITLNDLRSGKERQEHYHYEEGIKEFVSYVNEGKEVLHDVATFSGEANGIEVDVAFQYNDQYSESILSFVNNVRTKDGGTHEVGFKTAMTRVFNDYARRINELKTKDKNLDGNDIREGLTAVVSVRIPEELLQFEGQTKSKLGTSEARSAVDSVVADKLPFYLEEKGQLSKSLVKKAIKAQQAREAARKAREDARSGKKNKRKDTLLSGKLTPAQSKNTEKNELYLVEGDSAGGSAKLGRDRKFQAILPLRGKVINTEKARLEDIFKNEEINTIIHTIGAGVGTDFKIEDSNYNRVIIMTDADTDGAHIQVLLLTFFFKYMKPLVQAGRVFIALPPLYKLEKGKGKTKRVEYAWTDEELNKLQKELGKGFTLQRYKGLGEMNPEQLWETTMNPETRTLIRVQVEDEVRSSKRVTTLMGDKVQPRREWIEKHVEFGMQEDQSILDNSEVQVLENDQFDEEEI", "experiment": "Inhibition of Staphylococcus aures ParE using pBR322 DNA as substrate in presence of ATP"}, "Enterococcus faecalis [24]": {"test_system": "Enterococcus faecalis", "experiment": "Potency index, ratio of vancomycin MIC to test compound MIC for antibacterial activity against Enterococcus faecalis clinical isolate 15-1 assessed as inhibition of bacterial growth incubated for 18 to 24 hrs by broth microdilution method", "type": "functional", "settings": "time 18-24 hrs"}, "Staphylococcus aureus [25]": {"test_system": "Staphylococcus aureus", "experiment": "Potency index, ratio of vancomycin MIC to test compound MIC for antibacterial activity against methicillin-resistant Staphylococcus aureus clinical isolate 15-8 assessed as inhibition of bacterial growth incubated for 18 to 24 hrs by broth microdilution method", "type": "functional", "settings": "time 18-24 hrs"}, "Staphylococcus aureus [26]": {"test_system": "Staphylococcus aureus", "experiment": "In vivo antibacterial activity against methicillin-resistant Staphylococcus aureus clinical isolate 15-1 infected in Kunming mouse assessed as protection from systemic infection up to 50 mg/kg, po administered twice after bacterial infection", "type": "functional, organism-based", "settings": "dose mg/kg <=50"}, "Staphylococcus aureus [27]": {"test_system": "Staphylococcus aureus", "experiment": "Antibacterial activity against methicillin-resistant Staphylococcus aureus clinical isolate 15-9 assessed as inhibition of bacterial growth incubated for 18 to 24 hrs by broth microdilution method", "type": "functional", "settings": "time 18-24 hrs"}, "[28]": {"test_system": "Staphylococcus epidermidis", "experiment": "Potency index, ratio of vancomycin MIC to test compound MIC for antibacterial activity against methicillin-sensitive Staphylococcus epidermidis clinical isolate 15-4 assessed as inhibition of bacterial growth incubated for 18 to 24 hrs by broth microdilution method", "type": "functional", "settings": "time 18-24 hrs"}, "[29]": {"test_system": "Staphylococcus epidermidis", "experiment": "Antibacterial activity against methicillin-resistant Staphylococcus epidermidis clinical isolate 15-1 assessed as inhibition of bacterial growth incubated for 18 to 24 hrs by broth microdilution method", "type": "functional", "settings": "time 18-24 hrs"}, "Staphylococcus aureus [30]": {"test_system": "Staphylococcus aureus", "experiment": "Potency index, ratio of vancomycin MIC to test compound MIC for antibacterial activity against methicillin-resistant Staphylococcus aureus clinical isolate 15-7 assessed as inhibition of bacterial growth incubated for 18 to 24 hrs by broth microdilution method", "type": "functional", "settings": "time 18-24 hrs"}, "Enterococcus faecalis [31]": {"test_system": "Enterococcus faecalis", "experiment": "Potency index, ratio of vancomycin MIC to test compound MIC for antibacterial activity against Enterococcus faecalis clinical isolate 15-2 assessed as inhibition of bacterial growth incubated for 18 to 24 hrs by broth microdilution method", "type": "functional", "settings": "time 18-24 hrs"}, "Staphylococcus aureus [32]": {"test_system": "Staphylococcus aureus", "experiment": "Antibacterial activity against wild type methicillin-sensitive Staphylococcus aureus ATCC 29213 assessed as inhibition of bacterial growth incubated for 18 to 24 hrs by broth microdilution method", "type": "functional", "settings": "time 18-24 hrs"}, "[33]": {"test_system": "Staphylococcus epidermidis", "experiment": "Antibacterial activity against methicillin-sensitive Staphylococcus epidermidis clinical isolate 15-3 assessed as inhibition of bacterial growth incubated for 18 to 24 hrs by broth microdilution method", "type": "functional", "settings": "time 18-24 hrs"}}, "note": "Calls of active or inactive are those of the source. No cut-off for these calls is given here."}
{"compound": "CCn1c(=O)c(C(=O)Nc2nnc(-c3nccs3)s2)c(O)c2ccccc21", "values": [{"measurement": "IC50", "setting": "HepG2", "value": 55.3, "unit": "µM"}, {"measurement": "MIC", "setting": "Enterococcus faecalis [1]", "value": 0.5, "unit": "µg/mL"}, {"measurement": "half-life", "setting": "[2]", "value": 0.593, "unit": "h"}, {"measurement": "MIC", "setting": "Enterococcus faecium [3]", "value": 1, "unit": "µg/mL"}, {"measurement": "fraction unbound at 5 h, 5 µM", "setting": "[4]", "value": 0.001}, {"measurement": "survival at 0.33 mg/kg", "setting": "Staphylococcus aureus [5]", "value": 25, "unit": "%"}, {"measurement": "half-life", "setting": "[6]", "value": 8.39, "unit": "h"}, {"measurement": "AUC(0-t) at 72 h", "setting": "[7]", "value": 2540, "unit": "ng·h/mL"}, {"measurement": "MIC", "setting": "Staphylococcus aureus [8]", "value": 0.5, "unit": "µg/mL"}, {"measurement": "Ratio", "setting": "Staphylococcus aureus [9]", "value": 2}, {"measurement": "selectivity ratio", "setting": "[10]", "value": 111}, {"measurement": "Ratio", "setting": "Enterococcus faecium [11]", "value": 2}, {"measurement": "Ratio", "setting": "Staphylococcus aureus [12]", "value": 2}, {"measurement": "MIC", "setting": "Enterococcus faecalis [13]", "value": 0.5, "unit": "µg/mL"}, {"measurement": "MIC", "setting": "Staphylococcus aureus [14]", "value": 0.5, "unit": "µg/mL"}, {"measurement": "survival at 3 mg/kg", "setting": "Staphylococcus aureus [15]", "value": 50, "unit": "%"}, {"measurement": "survival at 1 mg/kg", "setting": "Staphylococcus aureus [16]", "value": 37.5, "unit": "%"}, {"measurement": "Ratio", "setting": "[17]", "value": 2}, {"measurement": "Ratio", "setting": "Staphylococcus aureus [18]", "value": 2}, {"measurement": "Ratio", "setting": "Staphylococcus aureus [19]", "value": 2}, {"measurement": "MIC", "setting": "Enterococcus faecalis [20]", "value": 0.5, "unit": "µg/mL"}, {"measurement": "Tmax", "setting": "[21]", "value": 1, "unit": "h"}, {"measurement": "Ratio", "setting": "Staphylococcus aureus [22]", "value": 2}, {"measurement": "IC50", "setting": "HUVEC", "value": 38.8, "unit": "µM"}, {"measurement": "IC50", "setting": "[23]", "value": "> 100", "unit": "µM"}, {"measurement": "Ratio", "setting": "Enterococcus faecalis [24]", "value": 2}, {"measurement": "Ratio", "setting": "Staphylococcus aureus [25]", "value": 2}, {"measurement": "Activity", "setting": "Staphylococcus aureus [26]", "value": "inactive"}, {"measurement": "MIC", "setting": "Staphylococcus aureus [27]", "value": 0.25, "unit": "µg/mL"}, {"measurement": "Ratio", "setting": "[28]", "value": 2}, {"measurement": "MIC", "setting": "[29]", "value": 0.5, "unit": "µg/mL"}, {"measurement": "Ratio", "setting": "Staphylococcus aureus [30]", "value": 2}, {"measurement": "Ratio", "setting": "Enterococcus faecalis [31]", "value": 2}, {"measurement": "MIC", "setting": "Staphylococcus aureus [32]", "value": 0.1, "unit": "µg/mL"}, {"measurement": "MIC", "setting": "[33]", "value": 0.5, "unit": "µg/mL"}]}
